In ChEMBL document CHEMBL4312009, “Multigram scale synthesis of polycyclic lactones and evaluation of antitumor and other biological properties” (Eur J Med Chem, 2020):

system: HeLa; assay: Cell cycle arrest in human HeLa cells assessed as effect on 4N stage incubated for 21 hrs by propidium iodide based flow cytometry; format: functional; settings: not given

Compound	EC50 [µM]
CCCCCCc1c2c(c(C)c3c1C(=O)OC3)Oc1ccccc1O2	2
CCCCCc1c2c(c(C)c3c1C(=O)OC3)Oc1ccccc1O2	1.6

system: GTPase KRas (Homo sapiens), P01116 [UNDEFINED MUTATION]; assay: Inhibition of KRas mutant in human HCT116 cells assessed as cell viability by measuring ATP at 0.2 uM relative to control; format: cell-based; settings: not given
Sequence (P01116 whole entry, looked up, change not shown): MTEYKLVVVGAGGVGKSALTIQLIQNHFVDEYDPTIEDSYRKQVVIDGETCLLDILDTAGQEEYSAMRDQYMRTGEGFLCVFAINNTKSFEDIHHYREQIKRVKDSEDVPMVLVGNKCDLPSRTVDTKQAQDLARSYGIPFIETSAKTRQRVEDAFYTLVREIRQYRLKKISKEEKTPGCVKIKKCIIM

Compound	inhibition [%]
CCCCCCc1c2c(c(C)c3c1C(=O)OC3)Oc1ccccc1O2	12
CCCCCc1c2c(c(C)c3c1C(=O)OC3)Oc1ccccc1O2	20

system: GTPase KRas (Homo sapiens), P01116 [UNDEFINED MUTATION]; assay: Inhibition of KRas mutant in human HCT116 cells assessed as cell viability by measuring ATP at 2 uM relative to control; format: cell-based; settings: not given

Compound	inhibition [%]
CCCCCCc1c2c(c(C)c3c1C(=O)OC3)Oc1ccccc1O2	60
CCCCCc1c2c(c(C)c3c1C(=O)OC3)Oc1ccccc1O2	62

system: GTPase KRas (Homo sapiens), P01116 [UNDEFINED MUTATION]; assay: Inhibition of KRas mutant in human DLD1 cells assessed as cell viability by measuring ATP at 2 uM relative to control; format: cell-based; settings: not given

Compound	inhibition [%]
CCCCCCc1c2c(c(C)c3c1C(=O)OC3)Oc1ccccc1O2	50
CCCCCc1c2c(c(C)c3c1C(=O)OC3)Oc1ccccc1O2	63

system: GTPase KRas (Homo sapiens), P01116 [UNDEFINED MUTATION]; assay: Inhibition of KRas mutant in human SW480 cells assessed as cell viability by measuring ATP; format: cell-based; settings: not given

Compound	inhibition
CCCCCCc1c2c(c(C)c3c1C(=O)OC3)Oc1ccccc1O2	Dose-dependent effect
CCCCCc1c2c(c(C)c3c1C(=O)OC3)Oc1ccccc1O2	Dose-dependent effect

target: Sodium channel protein type 9 subunit alpha (Homo sapiens) (UniProt Q15858); assay: Inhibition of human Nav1.7 at 40 uM relative to control; settings: not given
Sequence (Q15858 whole entry, looked up): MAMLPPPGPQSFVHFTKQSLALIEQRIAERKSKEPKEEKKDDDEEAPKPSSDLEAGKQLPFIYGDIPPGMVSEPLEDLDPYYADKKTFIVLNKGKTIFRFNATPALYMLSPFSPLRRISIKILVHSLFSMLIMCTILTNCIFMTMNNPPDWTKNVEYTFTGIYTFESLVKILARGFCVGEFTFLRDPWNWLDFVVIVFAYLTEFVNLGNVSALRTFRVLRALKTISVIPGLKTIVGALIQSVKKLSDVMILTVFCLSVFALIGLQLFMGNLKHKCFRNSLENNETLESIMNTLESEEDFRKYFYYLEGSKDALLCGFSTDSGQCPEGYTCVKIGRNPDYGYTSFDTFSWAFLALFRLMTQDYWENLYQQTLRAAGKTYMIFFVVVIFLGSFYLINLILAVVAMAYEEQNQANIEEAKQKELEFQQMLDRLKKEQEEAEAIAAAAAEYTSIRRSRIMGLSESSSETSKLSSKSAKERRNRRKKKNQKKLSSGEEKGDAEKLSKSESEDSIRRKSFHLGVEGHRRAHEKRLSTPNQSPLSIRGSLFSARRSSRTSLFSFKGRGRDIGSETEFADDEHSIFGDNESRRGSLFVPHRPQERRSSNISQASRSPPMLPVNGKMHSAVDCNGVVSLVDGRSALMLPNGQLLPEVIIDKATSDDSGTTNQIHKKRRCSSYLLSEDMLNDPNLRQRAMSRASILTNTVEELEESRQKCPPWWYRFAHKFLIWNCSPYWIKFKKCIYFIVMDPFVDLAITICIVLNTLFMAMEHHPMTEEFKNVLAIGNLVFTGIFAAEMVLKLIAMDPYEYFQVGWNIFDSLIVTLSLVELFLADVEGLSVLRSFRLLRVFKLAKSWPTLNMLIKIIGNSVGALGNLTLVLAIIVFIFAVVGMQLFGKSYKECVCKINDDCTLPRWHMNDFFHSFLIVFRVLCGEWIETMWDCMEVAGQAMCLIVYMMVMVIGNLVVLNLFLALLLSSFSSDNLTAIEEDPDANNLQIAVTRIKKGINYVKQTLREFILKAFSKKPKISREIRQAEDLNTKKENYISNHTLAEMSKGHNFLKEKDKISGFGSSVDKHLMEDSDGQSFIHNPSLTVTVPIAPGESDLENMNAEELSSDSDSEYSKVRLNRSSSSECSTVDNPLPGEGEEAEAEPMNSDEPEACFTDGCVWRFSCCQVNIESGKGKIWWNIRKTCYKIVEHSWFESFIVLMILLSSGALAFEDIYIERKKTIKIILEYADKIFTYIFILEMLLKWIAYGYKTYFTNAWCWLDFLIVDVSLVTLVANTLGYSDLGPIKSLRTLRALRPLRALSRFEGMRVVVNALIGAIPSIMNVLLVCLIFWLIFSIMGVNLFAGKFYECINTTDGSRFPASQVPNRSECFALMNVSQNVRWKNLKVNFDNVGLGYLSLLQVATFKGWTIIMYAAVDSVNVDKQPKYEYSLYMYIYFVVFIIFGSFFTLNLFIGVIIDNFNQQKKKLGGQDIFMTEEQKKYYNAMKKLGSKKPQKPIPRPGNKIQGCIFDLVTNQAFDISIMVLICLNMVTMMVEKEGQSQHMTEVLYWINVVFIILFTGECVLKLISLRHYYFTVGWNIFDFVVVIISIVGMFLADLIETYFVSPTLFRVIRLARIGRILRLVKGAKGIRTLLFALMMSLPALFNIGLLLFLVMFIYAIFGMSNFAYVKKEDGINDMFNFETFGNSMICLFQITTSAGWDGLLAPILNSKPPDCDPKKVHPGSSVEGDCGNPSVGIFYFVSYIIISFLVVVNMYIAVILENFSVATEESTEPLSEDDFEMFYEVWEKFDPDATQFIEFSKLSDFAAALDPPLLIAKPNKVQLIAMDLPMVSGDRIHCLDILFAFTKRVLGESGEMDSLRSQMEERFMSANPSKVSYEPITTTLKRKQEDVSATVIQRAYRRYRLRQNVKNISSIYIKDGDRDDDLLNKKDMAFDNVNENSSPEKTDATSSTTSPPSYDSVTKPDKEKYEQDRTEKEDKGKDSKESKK

Compound	inhibition [%]
CCCCCc1c2c(c(C)c3c1C(=O)OC3)Oc1ccccc1O2	74

system: HT-29; assay: Antiproliferative activity against human HT-29 cells assessed as reduction in cell viability incubated for 24 hrs by MTT assay; format: functional, cell-based; settings: HT-29, 24 h

Compound	IC50 [µM]
CCCCCCc1c2c(c(C)c3c1C(=O)OC3)Oc1ccccc1O2	1.33

system: GTPase KRas (Homo sapiens), P01116 [UNDEFINED MUTATION]; assay: Inhibition of KRas mutant in human SW480 cells assessed as cell viability by measuring ATP at 20 uM relative to control; format: cell-based; settings: not given

Compound	inhibition [%]
CCCCCCc1c2c(c(C)c3c1C(=O)OC3)Oc1ccccc1O2	86
CCCCCc1c2c(c(C)c3c1C(=O)OC3)Oc1ccccc1O2	86

system: HT-29; assay: Antiproliferative activity against human HT-29 cells assessed as reduction in cell viability incubated for 24 hrs in hypoxia condition by MTT assay; format: functional, cell-based; settings: HT-29, 24 h

Compound	IC50 [µM]
CCCCCCc1c2c(c(C)c3c1C(=O)OC3)Oc1ccccc1O2	8.93

system: GTPase KRas (Homo sapiens), P01116 [UNDEFINED MUTATION]; assay: Inhibition of KRas mutant in human HCT116 cells assessed as cell viability by measuring ATP; format: cell-based; settings: not given

Compound	inhibition
CCCCCCc1c2c(c(C)c3c1C(=O)OC3)Oc1ccccc1O2	Dose-dependent effect
CCCCCc1c2c(c(C)c3c1C(=O)OC3)Oc1ccccc1O2	Dose-dependent effect

system: CYP1A1; assay: Selectivity index, ratio of IC50 of cytotoxicity against CHO cells to IC50 for bioactivation in CYP1A1 (unknown origin) transfected CHO cells assessed as CYP1A1-mediated drug activation by measuring reduction in cell viability; format: cell-based; settings: hamster, CHO cells and CYP1A1-transfected CHO cells; read-out: Ratio IC50

Compound	selectivity ratio
CCCCCCc1c2c(c(C)c3c1C(=O)OC3)Oc1ccccc1O2	0.6

system: GTPase KRas (Homo sapiens), P01116 [UNDEFINED MUTATION]; assay: Inhibition of KRas mutant in human DLD1 cells assessed as cell viability by measuring ATP at 0.2 uM relative to control; format: cell-based; settings: not given

Compound	inhibition [%]
CCCCCCc1c2c(c(C)c3c1C(=O)OC3)Oc1ccccc1O2	14
CCCCCc1c2c(c(C)c3c1C(=O)OC3)Oc1ccccc1O2	60

system: GTPase KRas (Homo sapiens), P01116 [UNDEFINED MUTATION]; assay: Inhibition of KRas mutant in human SW480 cells assessed as cell viability by measuring ATP at 0.2 uM relative to control; format: cell-based; settings: not given

Compound	inhibition [%]
CCCCCCc1c2c(c(C)c3c1C(=O)OC3)Oc1ccccc1O2	21
CCCCCc1c2c(c(C)c3c1C(=O)OC3)Oc1ccccc1O2	20

system: HeLa; assay: Cell cycle arrest in human HeLa cells assessed as effect on S phase incubated for 21 hrs by propidium iodide based flow cytometry; format: functional; settings: not given

Compound	IC50 [µM]
CCCCCCc1c2c(c(C)c3c1C(=O)OC3)Oc1ccccc1O2	> 10
CCCCCc1c2c(c(C)c3c1C(=O)OC3)Oc1ccccc1O2	> 10

system: HeLa; assay: Cell cycle arrest in human HeLa cells assessed as effect on 2N stage incubated for 21 hrs by propidium iodide based flow cytometry; format: functional; settings: not given

Compound	IC50 [µM]
CCCCCCc1c2c(c(C)c3c1C(=O)OC3)Oc1ccccc1O2	2.1
CCCCCc1c2c(c(C)c3c1C(=O)OC3)Oc1ccccc1O2	1.8

target: Microtubule-associated protein tau (Homo sapiens) (UniProt P10636); assay: Inhibition of human Tau at 40 uM relative to control; settings: not given
Sequence (P10636 whole entry): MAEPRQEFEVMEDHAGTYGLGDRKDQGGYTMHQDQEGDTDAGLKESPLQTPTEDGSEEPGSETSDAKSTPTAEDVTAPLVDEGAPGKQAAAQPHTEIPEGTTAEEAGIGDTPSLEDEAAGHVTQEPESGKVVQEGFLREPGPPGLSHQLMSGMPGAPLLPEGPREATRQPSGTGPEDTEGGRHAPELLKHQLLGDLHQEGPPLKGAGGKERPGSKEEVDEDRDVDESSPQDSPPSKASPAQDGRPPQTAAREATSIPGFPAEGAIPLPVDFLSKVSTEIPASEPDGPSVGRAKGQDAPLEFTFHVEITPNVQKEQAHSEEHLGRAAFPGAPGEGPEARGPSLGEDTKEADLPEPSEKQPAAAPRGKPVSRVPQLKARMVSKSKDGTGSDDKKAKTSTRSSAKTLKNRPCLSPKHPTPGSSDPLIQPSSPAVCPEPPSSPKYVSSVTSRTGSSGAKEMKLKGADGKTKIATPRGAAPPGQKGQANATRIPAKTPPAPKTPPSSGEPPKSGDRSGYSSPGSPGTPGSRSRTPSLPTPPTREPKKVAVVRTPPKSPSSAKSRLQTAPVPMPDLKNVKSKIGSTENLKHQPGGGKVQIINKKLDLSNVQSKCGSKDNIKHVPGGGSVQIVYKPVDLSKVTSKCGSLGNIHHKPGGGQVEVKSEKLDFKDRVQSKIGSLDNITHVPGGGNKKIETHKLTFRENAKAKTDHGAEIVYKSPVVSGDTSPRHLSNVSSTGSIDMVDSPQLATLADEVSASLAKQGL

Compound	inhibition [%]
CCCCCCc1c2c(c(C)c3c1C(=O)OC3)Oc1ccccc1O2	77
CCCCCc1c2c(c(C)c3c1C(=O)OC3)Oc1ccccc1O2	88

system: GTPase KRas (Homo sapiens), P01116 [UNDEFINED MUTATION]; assay: Inhibition of KRas mutant in human HCT116 cells […] assessed as cell viability by measuring ATP; format: cell-based; settings: not given

Compound	inhibition
CCCCCCc1c2c(c(C)c3c1C(=O)OC3)Oc1ccccc1O2	Dose-dependent effect
CCCCCc1c2c(c(C)c3c1C(=O)OC3)Oc1ccccc1O2	Dose-dependent effect

system: GTPase KRas (Homo sapiens), P01116 [UNDEFINED MUTATION]; assay: Inhibition of KRas mutant in human DLD1 cells assessed as cell viability by measuring ATP; format: cell-based; settings: not given

Compound	inhibition
CCCCCCc1c2c(c(C)c3c1C(=O)OC3)Oc1ccccc1O2	Dose-dependent effect
CCCCCc1c2c(c(C)c3c1C(=O)OC3)Oc1ccccc1O2	Dose-dependent effect

system: HeLa; assay: Cell cycle arrest in human HeLa cells assessed as effect on mitotic index incubated for 21 hrs by propidium iodide based flow cytometry; format: functional; settings: not given

Compound	EC50 [µM]
CCCCCCc1c2c(c(C)c3c1C(=O)OC3)Oc1ccccc1O2	> 10
CCCCCc1c2c(c(C)c3c1C(=O)OC3)Oc1ccccc1O2	1.4

target: Apolipoprotein C-III (Homo sapiens) (UniProt P02656); assay: Inhibition of human APOC3 at 40 uM relative to control; settings: not given
Sequence (P02656 whole entry): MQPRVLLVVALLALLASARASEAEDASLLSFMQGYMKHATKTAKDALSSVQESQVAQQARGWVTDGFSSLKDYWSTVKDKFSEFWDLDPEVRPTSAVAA

Compound	inhibition [%]
CCCCCCc1c2c(c(C)c3c1C(=O)OC3)Oc1ccccc1O2	75
CCCCCc1c2c(c(C)c3c1C(=O)OC3)Oc1ccccc1O2	78

target: Proprotein convertase subtilisin/kexin type 9 (Homo sapiens) (UniProt Q8NBP7); assay: Inhibition of human PCSK9 at 40 uM relative to control; settings: not given
Sequence (Q8NBP7 31-152 limits assumed): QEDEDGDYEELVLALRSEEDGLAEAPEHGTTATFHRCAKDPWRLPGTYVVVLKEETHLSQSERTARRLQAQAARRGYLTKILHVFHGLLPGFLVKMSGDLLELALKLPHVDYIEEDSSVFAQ
Sequence (Q8NBP7 153-692 limits assumed): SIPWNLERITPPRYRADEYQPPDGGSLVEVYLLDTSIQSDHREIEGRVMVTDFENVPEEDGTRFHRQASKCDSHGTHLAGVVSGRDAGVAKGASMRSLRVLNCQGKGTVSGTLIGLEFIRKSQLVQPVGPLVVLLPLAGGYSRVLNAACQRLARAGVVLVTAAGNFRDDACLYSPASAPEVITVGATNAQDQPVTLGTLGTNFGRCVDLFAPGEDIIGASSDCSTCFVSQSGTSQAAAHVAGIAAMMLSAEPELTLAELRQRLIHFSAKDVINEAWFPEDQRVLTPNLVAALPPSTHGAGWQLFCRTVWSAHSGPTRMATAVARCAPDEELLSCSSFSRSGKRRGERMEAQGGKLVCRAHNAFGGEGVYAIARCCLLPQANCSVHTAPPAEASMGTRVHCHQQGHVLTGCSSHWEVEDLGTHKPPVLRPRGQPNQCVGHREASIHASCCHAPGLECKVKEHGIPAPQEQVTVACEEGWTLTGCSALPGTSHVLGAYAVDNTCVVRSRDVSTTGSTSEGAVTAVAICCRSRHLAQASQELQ

Compound	inhibition [%]
CCCCCCc1c2c(c(C)c3c1C(=O)OC3)Oc1ccccc1O2	75
CCCCCc1c2c(c(C)c3c1C(=O)OC3)Oc1ccccc1O2	69

system: GTPase KRas (Homo sapiens), P01116 [UNDEFINED MUTATION]; assay: Inhibition of KRas mutant in human DLD1 cells assessed as cell viability by measuring ATP at 20 uM relative to control; format: cell-based; settings: not given

Compound	inhibition [%]
CCCCCCc1c2c(c(C)c3c1C(=O)OC3)Oc1ccccc1O2	112
CCCCCc1c2c(c(C)c3c1C(=O)OC3)Oc1ccccc1O2	120

system: GTPase KRas (Homo sapiens), P01116 [UNDEFINED MUTATION]; assay: Inhibition of KRas mutant in human HCT116 cells […] assessed as cell viability by measuring ATP at 2 uM relative to control; format: cell-based; settings: not given

Compound	inhibition [%]
CCCCCCc1c2c(c(C)c3c1C(=O)OC3)Oc1ccccc1O2	69
CCCCCc1c2c(c(C)c3c1C(=O)OC3)Oc1ccccc1O2	59

system: GTPase KRas (Homo sapiens), P01116 [UNDEFINED MUTATION]; assay: Inhibition of KRas mutant in human HCT116 cells […] assessed as cell viability by measuring ATP at 20 uM relative to control; format: cell-based; settings: not given

Compound	inhibition [%]
CCCCCCc1c2c(c(C)c3c1C(=O)OC3)Oc1ccccc1O2	62
CCCCCc1c2c(c(C)c3c1C(=O)OC3)Oc1ccccc1O2	66

system: not listed separately; assay: Activation of wnt pathway in mouse C2C12 cells assessed as increase in alkaline phosphatase activity; format: cell-based; settings: not given

Compound	EC50 [µM]
CCCCCCc1c2c(c(C)c3c1C(=O)OC3)Oc1ccccc1O2	7.6
CCCCCc1c2c(c(C)c3c1C(=O)OC3)Oc1ccccc1O2	6.3

system: GTPase KRas (Homo sapiens), P01116 [UNDEFINED MUTATION]; assay: Inhibition of KRas mutant in human SW480 cells assessed as cell viability by measuring ATP at 2 uM relative to control; format: cell-based; settings: not given

Compound	inhibition [%]
CCCCCCc1c2c(c(C)c3c1C(=O)OC3)Oc1ccccc1O2	58
CCCCCc1c2c(c(C)c3c1C(=O)OC3)Oc1ccccc1O2	64

system: GTPase KRas (Homo sapiens), P01116 [UNDEFINED MUTATION]; assay: Inhibition of KRas mutant in human HCT116 cells assessed as cell viability by measuring ATP at 20 uM relative to control; format: cell-based; settings: not given

Compound	inhibition [%]
CCCCCCc1c2c(c(C)c3c1C(=O)OC3)Oc1ccccc1O2	91
CCCCCc1c2c(c(C)c3c1C(=O)OC3)Oc1ccccc1O2	89

system: GTPase KRas (Homo sapiens), P01116 [UNDEFINED MUTATION]; assay: Inhibition of KRas mutant in human HCT116 cells […] assessed as cell viability by measuring ATP at 0.2 uM relative to control; format: cell-based; settings: not given

Compound	inhibition [%]
CCCCCCc1c2c(c(C)c3c1C(=O)OC3)Oc1ccccc1O2	52
CCCCCc1c2c(c(C)c3c1C(=O)OC3)Oc1ccccc1O2	5

system: not listed separately; assay: Activation of wnt pathway in mouse C2C12 cells assessed as increase in beta-catenin activity; format: cell-based; settings: not given

Compound	EC50 [µM]
CCCCCCc1c2c(c(C)c3c1C(=O)OC3)Oc1ccccc1O2	> 20

system: HeLa; assay: Cell cycle arrest in human HeLa cells assessed as effect on G1 phase incubated for 21 hrs by propidium iodide based flow cytometry; format: functional; settings: not given

Compound	EC50 [µM]
CCCCCCc1c2c(c(C)c3c1C(=O)OC3)Oc1ccccc1O2	> 10
CCCCCc1c2c(c(C)c3c1C(=O)OC3)Oc1ccccc1O2	> 10

system: HeLa; assay: Cell cycle arrest in human HeLa cells incubated for 21 hrs by propidium iodide based flow cytometry; format: functional; settings: not given

Compound	IC50 [µM]
CCCCCCc1c2c(c(C)c3c1C(=O)OC3)Oc1ccccc1O2	1.8
CCCCCc1c2c(c(C)c3c1C(=O)OC3)Oc1ccccc1O2	1

system: CHO; assay: Cytotoxicity against CHO cells assessed as reduction in cell viability; format: cell-based; settings: Cricetulus griseus

Compound	IC50 [µM]
CCCCCCc1c2c(c(C)c3c1C(=O)OC3)Oc1ccccc1O2	1.52

target: T1, Angiopoietin-like protein 8 (Homo sapiens) (UniProt Q6UXH0); assay: Inhibition of human Angptl8 at 40 uM relative to control; settings: not given
T1 sequence (whole entry): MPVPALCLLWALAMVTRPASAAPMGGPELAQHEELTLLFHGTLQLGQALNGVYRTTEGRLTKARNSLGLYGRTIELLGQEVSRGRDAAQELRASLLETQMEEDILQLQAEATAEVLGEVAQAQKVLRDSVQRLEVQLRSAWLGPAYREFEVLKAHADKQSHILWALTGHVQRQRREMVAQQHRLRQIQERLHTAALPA

Compound	inhibition [%]
CCCCCCc1c2c(c(C)c3c1C(=O)OC3)Oc1ccccc1O2	86
CCCCCc1c2c(c(C)c3c1C(=O)OC3)Oc1ccccc1O2	89

system: HT-29; assay: Selectivity index, ratio of IC50 of antiproliferative activity against human HT-29 cells in normoxia to IC50 of antiproliferative activity against human HT-29 cells in hypoxia condition; format: functional; settings: not given

Compound	Ratio IC50
CCCCCCc1c2c(c(C)c3c1C(=O)OC3)Oc1ccccc1O2	0.15
